In patent US6028115A, “Method for preventing sexually transmitted diseases” (priority 1999, dated 2000):

Assays:
HIV-1 virus = details: general statement, no assay details; cited from earlier work
[1] = system: bovine papillomavirus type I; details: general statement; cited from earlier work
[2] = system: sheep testicular hyaluronidase; assay: hyaluronidase inhibition (hyaluronic acid hydrolysis); format: biochemical; details: pH 5.5, 10 minutes preincubation, 30 minutes at room temperature
Experimental: Hyaluronidase activity was quantitatively determined by measuring the extent of hyaluronic acid hydrolysis (i.e., the concentration of N-acetylglucosamine-reactive material formed from enzyme activity). Reaction mixtures (0.25 ml) containing the following were prepared: test compound (variable concentration); 0.1 M sodium acetate; 0.15 M sodium chloride; pH adjusted to 5.5; 7.2 units sheep testicular hyaluronidase (Sigma, Type III; H-2251) contained in an acetate buffer; 0.3 mg/ml hyaluronic acid (Sigma, from bovine vitreous humor; H-7630). The enzyme was preincubated with the test agent (1 mg/ml for screening purposes) for 10 minutes before starting the reaction by the addition of hyaluronic acid. The enzyme reaction was determined using the method of Aronson and Davidson (J. Biol. Chem. 241 437-440 (1967)). The reaction mixture was incubated for 30 minutes at room temperature. The reaction product was determined calorimetrically with p-dimethylaminobenzaldehyde (Reissig et al., J. Biol. Chem. 217 959-966 (1965)) by measuring the absorbance at 545 nm.
The reversibility of the hyaluronidase was determined by evaluating enzyme activity at different levels of enzyme (Ackermann and Potter, Proc. Soc. Exp. Biol. Med. 72 1-9 (1949)).

Lactobacillus gasseri = assay: growth of normal vaginal flora bacterium in culture; format: cell-based; details: 0.5 mg/ml, anaerobic, 37° C.
Experimental: This example illustrates the effect of the inhibitory agents of this invention on the normal vaginal flora. Lactobacillus gasseri, which is found in normal vaginal flora, was obtained from the American Type Culture Collection (Rockville, Md.) and cultured under anaerobic conditions at 37° C. in the presence of the desired test agents. Control samples without added test agents were also run. Samples were collected at twenty minute intervals starting at 120 minutes after the start of incubation through 240 minutes. The absorbance at 550 nm was used to estimate the cell density and inhibitory effects. Nonoxynol-9 was also evaluated for comparison purposes.

MT2 cells = assay: toxicity towards host cells of the virus assays; format: cell-based; details: concentration ranges used in the virus assays
Experimental: Serial dilutions of the test compounds (ranging from 0.1 μg/ml to 1.0 mg/ml) were added to HIV-1 virus such that 50 μl inoculum produced between 70 to 100 syncytia per well in untreated wells containing MT2 cells. The mHV-1 used was strain IIIs propagated in, and harvested from, a T4-lymphobastoid cell line. Each serial dilution of the test compound with virus was placed in each of three wells containing MT2 cells. The test compound alone was added to a fourth well containing MT2 cells to test for possible cytotoxicity. Triplicate virus control samples (no added test compounds but containing the equivalent amounts of the RPMI medium) were also included.

For Nonoxynol-9, the “inhibition of the enveloped virus HIV (statement)” value (HIV-1 virus) is given as “inhibits”, the “inhibition of the non-enveloped papillomavirus (statement)” value [1] is given as “not” and the IC50 [2] is given as “inactive”. For the same substance, the “inhibition of growth of Lactobacillus gasseri” value (Lactobacillus gasseri) was “about 60%” and the “toxicity towards the host cells” value (MT2 cells) was “did show cytotoxic effects”.
